Measured values taken from US4613586A, “Gastrin releasing peptide-like peptides” (Board of Trustees of the Leland Stanford Junior University, priority 1984, dated 1986).
No end group written: not given here.

Legend:
Assay type in all cases: binding, rabbit
[1] = tested on: GRP(1-27) antisera Code R3-2; assay: GRP carboxyterminal radioimmunoassay (crossreactivity, displacement of 125I-GRP(1-27) trace); conditions: for Percent Crossreactivity in RIA GRP(1-27) Code R3-2: antisera dilution 1:20,000, GRP(1-27) trace and standard, based on amount of unlabeled peptide for 50 percent displacement, highest concentration tested 1 μM; for Crossreactivity with GRP carboxyterminal antiserum (in words): summary of Table 1
Source text: (§1) Three GRP antisera were generated in rabbits against synthetic porcine GRP and GRP(1-16) (Peninsula Laboratories, San Carlos, CA) linked by a water soluble carbodiimide to bovine throglobulin (as described by Weber, E., Evans, C. J., Chang, J-K. and Barchas, J. D., J. Neurochem 38, 436-447 (1982). RIA conditions have been described in Weber, E., Evans, C. J., and Barchas, J. D., Nature 299, 77-79 (1982). Three GRP RIA's were utilized, the specificity of these RIA's is indicated in Table 1.
(§2) An antisera dilution of 1:20,000 for the GRP(1-27) R3-2 antisera and a dilution of 1:15,000 for the GRP(1-16) R2-6A were used for RIA. For these RIA's GRP(1-27) was used as ^125 I-trace and standard. An antisera dilution of 1:20,000 for GRP(1-16) R2-6B and GRP(1-16) trace and standard were used in the GRP(1-16) carboxyterminal assay. Crossreactivity was based on the amount of unlabeled peptide needed to obtain a 50 percent displacement of ^125 I-trace from the antisera. The highest concentration of unlabeled peptide tested was 1 μM.

[2] = tested on: GRP(1-16) antisera Code R2-6A; assay: GRP aminoterminal radioimmunoassay (crossreactivity, displacement of 125I-GRP(1-27) trace); conditions: summary of Table 1
Source text: as §1, §2

[3] = tested on: GRP(1-16) antisera Code R2-6B; assay: GRP(1-16) carboxyterminal radioimmunoassay (crossreactivity, displacement of 125I-GRP(1-16) trace); conditions: summary of Table 1
Source text: as §1, §2

| Compound | Percent Crossreactivity in RIA GRP(1-27) Code R3-2 [1] | Crossreactivity with GRP carboxyterminal antiserum (in words) [1] | Crossreactivity in GRP aminoterminal RIA (in words) [2] | Crossreactivity with GRP(1-16) carboxyterminal antisera (in words) [3] |
| --- | --- | --- | --- | --- |
| CSCC[C@H](NC(=O)[C@H](CC(C)C)NC(=O)[C@H](Cc1cnc[nH]1)NC(=O)CNC(=O)[C@@H](NC(=O)[C@H](C)NC(=O)[C@H](Cc1c[nH]c2ccccc12)NC(=O)[C@H](CCC(N)=O)NC(=O)[C@H](CC(N)=O)NC(=O)CNC(=O)[C@H](CC(C)C)NC(=O)[C@H](CCCN=C(N)N)NC(=O)[C@H](CCC(N)=O)NC(=O)[C@@H]1CCC(=O)N1)C(C)C)C(N)=O [Bombesin] | 30% | crossreacted | – | – |
| CSCC[C@H](NC(=O)[C@H](CC(C)C)NC(=O)[C@H](Cc1c[nH]cn1)NC(=O)CNC(=O)[C@@H](NC(=O)[C@H](C)NC(=O)[C@H](Cc1c[nH]c2ccccc12)NC(=O)[C@H](Cc1c[nH]cn1)NC(=O)[C@H](CC(N)=O)NC(=O)CN)C(C)C)C(N)=O [GRP(18-27), Gly-Asn-His-Trp-Ala-Val-Gly-His-Leu-Met-NH2] | 60% | crossreacted | not | – |
| APVSVGGGTVLAKMYPRGNHWAVGHLM-NH2 [GRP] | 100% | crossreacted | crossreacted | little crossreactivity |
